Test system: AEA cellular uptake (U937 cells)
Assay: [3H]-AEA cellular uptake inhibition in U937 cells
Format: cell-based
Settings: Homo sapiens, U-937, U937 cells, final 100 nM AEA with 0.5 nM [3H]-AEA, 15 min at 37° C.; read-out: AEA uptake IC50
Experimental: [^3H]-AEA Cellular Uptake
Screening for AEA cellular uptake inhibition was performed in a semi-automated procedure: Pipetting and washing steps were performed by a Biomek3000 laboratory workstation. First, required amounts of U937 cells were centrifuged at 100×g for 5 min and resuspended in RPMI (37° C.) to a final concentration of 2×10^6 cells/mL. Then, 250 μL of cell suspension (0.5×10^6 cells per sample) were transferred into AquaSil™ silanized glass vials (Chromacol 1.1-MTV) in 96-well format. After addition of 5 μL vehicle (DMSO) or compounds the cells were incubated at 37° C. for 15 min. As positive controls OMDM-2 and UCM707 were used at 10 μM in each run. The ETI-T compounds were measured at up to 7 concentrations in triplicates from 100 pM-100 μM. After pre-incubation, a mixture of 0.5 nM [ethanolamine-1-^3H]-AEA, (60 Ci/mmol) and 99.5 nM of cold AEA (final 100 nM) was added and samples were incubated at 37° C. for another 15 min. The reaction was stopped by rapid filtration over UniFilter-96 GF/C filters (PerkinElmer) pre-soaked with PBS 0.25% BSA. Cells were washed three times with 100 μL ice-cold PBS buffer containing 1% fatty acid free BSA. After drying, 45 μL MicroScint 20 scintillation cocktail (PerkinElmer, Waltham, Mass., US) was added to the wells and the plate was sealed. Radioactivity was measured by liquid scintillation counting on a PerkinElmer Wallac Trilux MicroBeta 1450 during 2 min. Non-specific binding of [^3H]AEA (100 nM) to the glass vials was never higher than 10%. IC50 values were calculated by GraphPad® by non-linear regression using the built-in log(inhibitor) vs. response-variable slope (four parameters) function.

| IC50 [nM] | SMILES |
| --- | --- |
| 1140 | O=C1/C(=C/c2ccc3[nH]cnc3c2)S/C(=N\Cc2ccccc2)N1CCCc1ccccc1 [04_C_K, (2Z,5Z)-5-((1H-benzo[d]imidazol-5-yl)methylene)-2-(benzylimino)-3-(3-phenylpropyl)thiazolidin-4-one] |
| 657 | O=C1/C(=C/c2ccc(CO)cc2)S/C(=N\c2ccccc2)N1Cc1ccccc1 [22_N_C, (2Z,5Z)-5-(4-(hydroxymethyl)benzylidene)-3-benzyl-2-(phenylimino)thiazolidin-4-one] |
| 1560 | O=C1/C(=C/c2ccc(CO)cc2)S/C(=N\Cc2ccccc2)N1CCc1ccccc1 [15_C_O, (2Z,5Z)-5-(4-(hydroxymethyl)benzylidene)-2-(benzylimino)-3-phenethylthiazolidin-4-one] |
| 632 | Cc1ccc(N2C(=O)/C(=C/c3ccc4[nH]cnc4c3)S/C2=N\c2ccc(F)cc2)cc1 [32_B_A, (2Z,5Z)-5-((1H-benzo[d]imidazol-5-yl)methylene)-2-(4-fluorophenylimino)-3-p-tolylthiazolidin-4-one] |
| > 10000 | COc1ccc(N2C(=O)/C(=C/c3ccc(CO)cc3)S/C2=N\c2ccccc2)cc1 [22_N_F, (2Z,5Z)-5-(4-(hydroxymethyl)benzylidene)-3-(4-methoxyphenyl)-2-(phenylimino)thiazolidin-4-one] |
| 500 | O=C1/C(=C/c2ccc(CO)cc2)S/C(=N\Cc2ccc(F)cc2)N1c1ccccc1 [22_P_N, (2Z,5Z)-5-(4-(hydroxymethyl)benzylidene)-2-(4-fluorobenzylimino)-3-phenylthiazolidin-4-one] |
| 1060 | CCCCN1C(=O)/C(=C/c2ccc3[nH]cnc3c2)S/C1=N\Cc1ccccc1 [04_C_G, (2Z,5Z)-5-((1H-benzo[d]imidazol-5-yl)methylene)-2-(benzylimino)-3-butylthiazolidin-4-one] |
| 812 | O=C1/C(=C/c2ccc(CO)cc2)S/C(=N\CCc2ccccc2)N1c1ccccc1 [22_U_N, (2Z,5Z)-5-(4-(hydroxymethyl)benzylidene)-2-(phenethylimino)-3-phenylthiazolidin-4-one] |
| 727 | O=C1/C(=C/c2ccc3[nH]cnc3c2)S/C(=N\c2ccccc2)N1CCCc1ccccc1 [04_N_K, (2Z,5Z)-5-((1H-benzo[d]imidazol-5-yl)methylene)-2-(phenylimino)-3-(3-phenylpropyl)thiazolidin-4-one] |
| 598 | COc1ccc(C/N=C2\S/C(=C\c3ccccc3)C(=O)N2c2ccccc2)cc1 [23_Q_N, (2Z,5Z)-2-(4-methoxybenzylimino)-5-benzylidene-3-phenylthiazolidin-4-one] |
| 1120 | O=C1/C(=C/c2ccc3[nH]cnc3c2)S/C(=N\Cc2ccccc2)N1CCc1ccccc1 [04_C_O, (2Z,5Z)-5-((1H-benzo[d]imidazol-5-yl)methylene)-2-(benzylimino)-3-phenethylthiazolidin-4-one] |
| 1030 | COCc1cccc(/C=C2\S/C(=N\c3ccccc3)N(c3ccccc3)C2=O)c1 [compound 15, (2Z,5Z)-5-(3-(methoxymethyl)benzylidene)-3-phenyl-2-(phenylimino)thiazolidin-4-one] |
| 663 | O=C1/C(=C/c2ccc3c(c2)OCCO3)S/C(=N\c2ccc(F)cc2)N1c1ccc(Cl)cc1 [24_B_L, (2Z,5Z)-2-(4-fluorophenylimino)-3-(4-chlorophenyl)-5-((2,3-dihydrobenzo[b][1,4]dioxin-6-yl)methylene)thiazolidin-4-one] |
| 2640 | COCc1cccc(/C=C2\S/C(=N\Cc3ccccc3Cl)N(c3ccccc3)C2=O)c1 [15_T_N, (2Z,5Z)-2-(2-chlorobenzylimino)-5-(3-(methoxymethyl)benzylidene)-3-phenylthiazolidin-4-one] |
| 564 | O=C1/C(=C/c2ccc3[nH]ccc3c2)S/C(=N\Cc2ccccc2)N1CCCc1ccccc1 [03_C_K, (2Z,5Z)-5-((1H-indol-5-yl)methylene)-2-(benzylimino)-3-(3-phenylpropyl)thiazolidin-4-one] |
| 515 | Cn1ncc2cc(/C=C3\S/C(=N\c4ccccc4)N(c4ccccc4)C3=O)ccc21 [compound 28, (2Z,5Z)-5-((1-methyl-1H-indazol-5-yl)methylene)-3-phenyl-2-(phenylimino)thiazolidin-4-one] |
| 878 | O=C1/C(=C/c2ccc3[nH]cnc3c2)S/C(=N\Cc2cccnc2)N1c1ccccc1 [04_S_N, (2Z,5Z)-2-((pyridin-3-yl)methylimino)-5-((1H-benzo[d]imidazol-5-yl)methylene)-3-phenylthiazolidin-4-one] |
| 731 | O=C1/C(=C/c2ccc3[nH]ccc3c2)S/C(=N\c2ccccc2)N1c1ccccc1 [compound 03, (2Z,5Z)-5-((1H-indol-5-yl)methylene)-3-phenyl-2-(phenylimino)thiazolidin-4-one] |
| 729 | O=C1/C(=C/c2ccc(CO)cc2)S/C(=N\c2ccccc2)N1c1ccccc1 [compound 22, (2Z,5Z)-5-(4-(hydroxymethyl)benzylidene)-3-phenyl-2-(phenylimino)thiazolidin-4-one] |
| 753 | CCCCN1C(=O)/C(=C/c2ccccc2)S/C1=N\Cc1ccccc1 [23_C_G, (2Z,5Z)-5-benzylidene-2-(benzylimino)-3-butylthiazolidin-4-one] |
| 1660 | O=C1/C(=C/c2ccc(CO)cc2)S/C(=N\Cc2ccccc2)N1c1ccccc1 [22_C_N, (2Z,5Z)-5-(4-(hydroxymethyl)benzylidene)-2-(benzylimino)-3-phenylthiazolidin-4-one] |

Same assay, conditions: Homo sapiens, U-937, U937 cells, final 100 nM AEA with 0.5 nM [3H]-AEA, 15 min at 37° C.; read-out: AEA uptake inhibition IC50

| IC50 [nM] | SMILES |
| --- | --- |
| 1810 | O=C1/C(=C/c2ccccc2)S/C(=N\c2ccccc2)N1Cc1ccco1 |
| 3260 | O=C1/C(=C/c2ccc3occc3c2)S/C(=N\c2ccccc2)N1c1ccccc1 |
| 7180 | COc1ccc(/C=C2\S/C(=N\c3ccccc3)N(c3ccc(OC)cc3)C2=O)cc1 |
| 1310 | O=C1/C(=C/c2ccc(CO)cc2)S/C(=N\c2ccccc2)N1Cc1ccco1 [drawing 157] |
| 4630 | O=C1/C(=C/c2ccc3sccc3c2)S/C(=N\c2ccccc2)N1c1ccccc1 |
| 9940 | CSc1ccc(/C=C2\S/C(=N\c3ccccc3)N(c3ccccc3)C2=O)cc1 |
| 2120 | COc1ccc(/C=C2\S/C(=N\c3ccccc3)N(c3ccccc3)C2=O)cc1 |
| 4150 | CCCCN1C(=O)/C(=C/c2ccccc2)S/C1=N\c1ccccc1 |
| 111 | Cc1ccc(/N=C2\S/C(=C\c3ccc(CO)cc3)C(=O)N2c2ccccc2)cc1 [drawing 141] |
| 1740 | COc1ccc(/C=C2\S/C(=N\c3ccc(OC)cc3)N(c3ccccc3)C2=O)cc1 |
| 170 | O=C1/C(=C/c2ccc3c(c2)OCCO3)S/C(=N\Cc2ccccc2)N1c1ccccc1 [drawing 133] |
| 194 | O=C1/C(=C/c2ccc3[nH]cnc3c2)S/C(=N\c2ccccc2)N1c1ccccc1 [drawing 109] |
| 107 | Cc1ccc(/N=C2\S/C(=C\c3ccc4[nH]cnc4c3)C(=O)N2c2ccccc2)cc1 [drawing 144] |
| 11800 | O=C1/C(=C/c2ccc3scnc3c2)S/C(=N\c2ccccc2)N1c1ccccc1 |
| 16600 | C/N=C1\S/C(=C\c2ccc3[nH]ccc3c2)C(=O)N1c1ccccc1 |
| 2800 | COc1ccc(/C=C2\S/C(=N\c3ccc(C)cn3)N(c3ccccc3)C2=O)cc1 |

Same assay, conditions: U937 cells, final 100 nM AEA with 0.5 nM [3H]-AEA, 15 min at 37° C.; read-out: AEA uptake IC50

| IC50 [nM] | SMILES |
| --- | --- |
| 1430 | O=C1/C(=C/c2ccc(CO)cc2)S/C(=N\Cc2ccccc2)N1CCCc1ccccc1 [22_C_K, (2Z,5Z)-5-(4-(hydroxymethyl)benzylidene)-2-(benzylimino)-3-(3-phenylpropyl)thiazolidin-4-] |

From patent publication US10155754B2, “Substituted 2-imino-1,3-thiazolidin-4-ones as N-arachidonoylethanolamine cellular uptake inhibitors” (UNIVERSITAT BERN, priority 2014, dated 2018)
